# Laboratory results published in patent publication US8906678B2, “Use of markers of undifferentiated pluripotent stem cell” (Agency for Science, Technology and Research, priority 2010, dated 2014).
# Read-outs that look alike come from different tables or passages of the source. Bridge positions count the residues as written; N and C are the ends. Square brackets hold non-standard residues; d marks the D form. Peptide text beside a SMILES is read from it.
# Experiments:
# Format in all cases: cell-based, human
# [1] = tested on: MAPK pathway (ERK phosphorylation) in HES-3 cultures; test: SU5402 inhibitor study, ERK phosphorylation by western blot; conditions: 20 μM and 30 μM SU5402 for 2 h, then 10 ng/ml FGF-2 for 15 min
# Procedure: hESC cultured under various conditions were lysed and clarified via centrifugation before quantifying with the DC protein assay (Biorad, http://www.bio-rad.com). 20 ug of total protein from each condition was resolved and transferred onto membrane as described above. The resolved proteins were then immunoblotted with anti-actin (1:10,000; Abcam, http://www.abcam.com), anti-total ERK (1:1000; Sigma Aldrich) and anti-phospho-ERK (1:5000; Sigma Aldrich) antibodies. The protein bands were visualized using either ECL Plus detection reagent (Amersham, GE Healthcare, UK, http://www.gehealthcare.com) or LI-COR ODYSSY imaging system (LI-COR Biosciences, Nebraska, http://www.licor.com).
# Efficacy of SU5402 (Calbiochem, San Diego, USA, http://www.emdbiosciences.com) was determined by culturing hESC in absence of FGF-2 for 5 days, followed by incubating with 20 μM or 30 μM of SU5402 for 2 h before inducing the treated cultures with FGF-2 for 15 min. Cells were then lysed and the lysates were analyzed using western blot analysis.
# [2] = tested on: PHB surface expression in HES-3; test: SU5402 effect on PHB surface expression, flow cytometry, HES-3; conditions: 20 μM or 30 μM SU5402 for 7 days
# Procedure: Cells were harvested as single cell suspensions using trypsin, resuspended at 2×10^5 cells per 10 μl volume in 1% bovine serum albumin (BSA)/PBS and incubated for 45 min with each mAb clone (100 ul culture supernatant) or monoclonal TRA-1-60 antibody. (12.5 ug/ml; Chemicon, Temecula, Calif. http://www.chemicon.com). Cells were then washed with cold 1% BSA/PBS, and further incubated for 15 min with 1:500 dilution of fluorescein isothiocyanate (FITC)-conjugated goat α-mouse antibody (DAKO, Glostrup, Denmark, http://www.dako.com). After incubation, the cells were again washed and resuspended in 1% BSA/PBS for analysis on a FACScan (Becton, Dickinson and Company, Franklin Lakes, N.J., http://www.bd.com).
# To observe the effect of SU5402 on expression of PHB in hESC, cells were seeded and allowed to adhere for 24 h before culturing them in the presence of SU5402 at concentrations of 20 μM or 30 μM for 7 days. Control cells were cultured similarly in the presence of the vehicle control, DMSO instead. Cells were subsequently harvested for flow cytometry analysis.
# HES-3 cells = conditions: for killing efficiency on hESC, D-form vs L-form: 100 μm, after 120 hr; for relative viability: 100 μM
# Procedure: Viability was determined using Propidium Iodide (PI) assay, where cells were trypsinized and resuspended in binding buffer (10 mM HEPES/NaOH, 140 mM NaCl and 2.5 mM CaCl2) containing 1.25 mg/ml of PI. The cells were incubated at room temperature for 15 min before analyzing on the flow cytometer.
# ESIMR90 = tested on: ESIMR90
# Procedure: Induced pluripotent stem cell line, ESIMR90, derived from lung fibroblasts, was obtained from James Thomson (18). ESIMR90 was cultured as per hESC cultures, with the exception of supplementing cultures with 100 ng/ml of FGF-2. For FGF-2 starved cultures, cells were maintained without FGF-2 as mentioned above. Viability was determined using Propidium Iodide (PI) assay, where cells were trypsinized and resuspended in binding buffer (10 mM HEPES/NaOH, 140 mM NaCl and 2.5 mM CaCl2) containing 1.25 mg/ml of PI. The cells were incubated at room temperature for 15 min before analyzing on the flow cytometer.
# hESC [3] = test: TUNEL assay (nuclear DNA fragmentation); conditions: after 48 hours
# Procedure: Nuclear DNA fragmentation was measured via a TUNEL (Terminal deoxynucleotidyl transferase dUTP nick end labeling) assay kit (Promega, Madison, Wis., http://www.promega.com). Cells were harvested from each condition and fixed in 1% paraformaldehyde for 20 min on ice before permeabilizing them with ice-cold 70% ethanol at […] overnight. Subsequently, the cells were washed with PBS and incubated in 80 μl of equilibration buffer for 5 min at room temperature. The cells were pelleted down and resuspended in 50 μl of incubation buffer containing nucleotides and rTdT enzyme, followed by incubation at 37° C. for 1 h. The reaction was quenched using 20 mM EDTA and cells were resuspended in 0.1% Triton/0.5% BSA/PBS before analyzing on the flow cytometer. The green fluorescence of fluorescein-12-dUTP was detected in the FL1 channel.
# HES-3 = test: Growth curve of HES-3 cultures (viable cell number vs time)
# Procedure: Human embryonic stem cell line, HES-3, was obtained from ES Cell International (ESI, Singapore, http://escellinternational.com). The cells were cultured at 37° C., 5% CO2, on matrigel-coated culture dishes supplemented with conditioned media from immortalized mouse embryonic fibroblast, ΔE-MEF. The media used for culturing hESC was Knockout (KO) media containing 85% KO-DMEM (DMEM, Dulbecco's modified Eagle's medium) supplemented with 15% KO serum replacer, 1 mM L-glutamine, 1% non-essential amino acids, 0.1 mM 2-mercaptoethanol, and 10 ng/ml basic fibroblast growth factor (FGF-2; Invitrogen, Carlsbad, Calif., http://www.invitrogen.com). The cells were treated with collagenase IV (200 U/ml) or TrypLE Express solution (Invitrogen) and dissociated into small clumps or single cells respectively by repeated pipetting. The cells were then reseeded onto matrigel-coated plates at a passage ratio 1:4.
# (§1) HES-3 and IMR-90 cells were cultured in 24 wells culture dishes supplemented with either 100 μM PHB-targeting pro-apoptotic peptide (CKGGRAKDC-GG-D(KLAKLAK)2 (SEQ ID NO:3)>90% purity; Sigma Aldrich) or 0.2% DMSO as control. Cultures were induced every 48 h and harvested daily for cell count. Cell numbers were determined using NucleoCounter according to the manufacturer's recommendations (Chemometec, Denmark, http://http://www.chemometec.com). The growth curves were generated by plotting viable cell number vs time. Specific growth rate, μ, was calculated as the gradient of the exponential phase, determined by plotting ln(cell number) vs time. Triplicates were done for each set of data.
# hESC [4] = test: Detection of caspase-3 activity / annexin V, hESC; conditions: 100 μM peptide, 24 hours
# Procedure: (§2) To detect caspase-3 activity in treated hESC, cells grown in 24 wells were incubated with 5 μM of NucView 488 Caspase-3 substrate (Biotium Inc, www.biotium.com) and sulforhodamine 101-annexin V (1.25 ug/ml; Biotium Inc) at room temperature for 30 min. Cells were then washed once with PBS and examined under the Olympus IX70 fluorescence microscope (Olympus, http://www.olvmousamerica.com). For flow cytometry analysis, hESC was trypinsized before resuspending cells in PBS containing caspase-3 substrate and annexin V reagents.
# IMR-90 cells = test: Growth curve of IMR-90 cells (specificity control)
# Procedure: Human fetal lung fibroblast cell line, IMR-90 (CCL-186), was purchased from American Type Culture Collection and cultured according to the supplier's instructions.
# as §1
# ESIMR90 cells = test: Detection of caspase-3 activity / annexin V, ESIMR90; conditions: 100 μM peptide, 24 hours
# Procedure: as §2
# [5] = 100 μM of peptide, clump cultures
smiles,measurement,setting,value
Cc1c[nH]c(/C=C2\C(=O)Nc3ccccc32)c1CCC(=O)O [SU5402],ERK phosphorylation,[1],suppression of ERK phosphorylation
same,surface expression of PHB,[2],down-regulated surface expression of PHB
CC(C)C[C@H](NC(=O)[C@H](CCCCN)NC(=O)CNC(=O)CNC(=O)[C@H](CS)NC(=O)[C@H](CC(=O)O)NC(=O)[C@H](CCCCN)NC(=O)[C@H](C)NC(=O)[C@H](CCCNC(=N)N)NC(=O)CNC(=O)CNC(=O)[C@H](CCCCN)NC(=O)[C@@H](N)CS)C(=O)N[C@@H](C)C(=O)N[C@@H](CCCCN)C(=O)N[C@@H](CC(C)C)C(=O)N[C@@H](C)C(=O)N[C@@H](CCCCN)C(=O)N[C@@H](CCCCN)C(=O)N[C@@H](CC(C)C)C(=O)N[C@@H](C)C(=O)N[C@@H](CCCCN)C(=O)N[C@@H](CC(C)C)C(=O)N[C@@H](C)C(=O)N[C@@H](CCCCN)C(=O)O [L-form peptide] (H-CKGGRAKDCGGKLAKLAKKLAKLAK-OH; N-terminus and C-terminus assumed),"killing efficiency on hESC, D-form vs L-form",HES-3 cells,comparable
same,hESC viability,"HES-3 cells; human, 120 hr",< 5%
"CC(C)C[C@@H](NC(=O)[C@@H](CCCCN)NC(=O)CNC(=O)CNC(=O)[C@@H]1CSSC[C@H](N)C(=O)N[C@@H](CCCCN)C(=O)NCC(=O)NCC(=O)N[C@@H](CCCNC(=N)N)C(=O)N[C@@H](C)C(=O)N[C@@H](CCCCN)C(=O)N[C@@H](CC(=O)O)C(=O)N1)C(=O)N[C@H](C)C(=O)N[C@H](CCCCN)C(=O)N[C@H](CC(C)C)C(=O)N[C@H](C)C(=O)N[C@H](CCCCN)C(=O)N[C@H](CCCCN)C(=O)N[C@H](CC(C)C)C(=O)N[C@H](C)C(=O)N[C@H](CCCCN)C(=O)N[C@H](CC(C)C)C(=O)N[C@H](C)C(=O)N[C@H](CCCCN)C(=O)O [peptide, CKGGRAKDC-GG-D(KLAKLAK)2] (H-CKGGRAKDCGG[dK][dL][dA][dK][dL][dA][dK][dK][dL][dA][dK][dL][dA][dK]-OH; disulfide 1-9; N-terminus and C-terminus assumed)",time of incubation to cell death via apoptosis,ESIMR90; IPSCs,≤ 48 h
same,relative viability,"ESIMR90; human, 72 h",33.4%
same,DNA fragmentation compared to the control,hESC [3],significant increase in DNA fragmentation
same,"killing efficiency on hESC, D-form vs L-form",HES-3 cells,comparable
same,toxic effect on hESC,HES-3 cells; concentrations less than 100 μM,minimal
same,time of incubation to cell death via apoptosis,HES-3 cells; hESC,≤ 48 h
same,relative viability,"HES-3 cells; human, 24 h",84.7%
same,relative viability,"HES-3 cells; human, 72 h",52.2%
same,relative viability,"HES-3 cells; human, 120 h",21.7%
same,viability,"HES-3 cells; human, 120 hr, 150 µM",< 10%
same,viability,"HES-3 cells; human, 120 hr, 200 µM",< 10%
same,"apoptotic killing effect, dose dependence",HES-3 cells; titrated over 20 μM to 200 μM,concentration-dependent
same,initiation of death phase,HES-3; [5],70 h
same,td,HES-3; [5],61.3 h
same,specific growth rate,"HES-3; 100 μM of peptide, clump cultures, over 7 days",0.0113 h⁻¹
same,growth compared to the control,HES-3; peptide supplemented to TrypLE passaged cultures,minimal growth
same,population exhibiting elevated caspase-3 activity,hESC [4]; flow cytometry,71.1%
same,caspase-3 substrate and Annexin V staining,hESC [4]; fluorescence microscopy,exhibited caspase-3 activity and phosphatidylserine (PS) externalization
same,growth rate μ,IMR-90 cells; 100 μM of peptide,0.0167 h⁻¹
same,cell killing effect,"IMR-90 cells; IMR-90 cells, which do not express PHB on membrane",minimal cell killing effect
same,population exhibiting elevated caspase-3 activity,ESIMR90 cells; flow cytometry,66.3%
same,caspase-3 substrate and Annexin V staining,ESIMR90 cells; fluorescence microscopy,exhibited caspase-3 activity and phosphatidylserine (PS) externalization
